Measured values: US20240385177A1, “Screening Method Using Brown Adipocytes” (KATAOKA CORPORATION, priority 2021, published 2024)
“Also recorded” adds a separate entry of the source.

Test system: low-molecular-weight compound-induced brown adipocytes (ciBAs)
Test: Evaluation of browning tendency of ciBAs directly induced from human fibroblasts (Ucp1/Fabp4/Cidea expression, UCP1 protein, induction efficiency, mtDNA, OCR)
Format: cell-based
Conditions: human fibroblasts cultured 3 weeks
Experimental: The human fibroblasts used as material were purchased from DS Pharma Biomedical, Co., Ltd. The fibroblasts are derived from human skin. The above human fibroblasts were seeded in 35 mm dishes coated with gelatin (Cat #: 190-15805, manufactured by FUJIFILM Wako Pure Chemical Co.) at 5×10^4, and cultured in DMEM medium (Cat #: 11965092; manufactured by Gibco) supplemented with 10% fetal bovine serum (FBS), 100 U/mL penicillin, 100 μg/mL streptomycin until 80% to 90% confluency at 37° C., 5% CO2.
Then, after the human fibroblasts reached 80 to 90% confluency, the medium in the dish was replaced with the serum-free brown adipocyte-inducing medium “SFBAM” described below, and the human fibroblasts were cultured in SFBAM for 3 weeks. To induce ciBA, SFBAM was further supplemented with rosiglitazone (selective PPARγ agonist; 184-02651, manufactured by FUJIFILM Wako Pure Chemical Corporation) at a final concentration of 1 μmol/L, forskolin (cAMP inducer; 063-02193) at a final concentration of 7.5 μmol/L and BMP7 (bone morphogenetic protein; 026-19171, manufactured by FUJIFILM Wako Pure Chemical Corporation) at a final concentration of 20 ng/mL, and human fibroblasts were cultured for 3 weeks. Separately, capsaicin (TRPV1 agonist; 030-11353, manufactured by FUJIFILM Wako Pure Chemical Corporation) and/or nonivamide (TRPV1 agonist; sc-202735, Santa Cruz Biotechnology (manufactured by Santa Cruz Biotechnology, CA, USA), capsazepine (TRPV1 antagonist; 037-23171, manufactured by FUJIFILM Wako Pure Chemical Corporation), AMG9810 (TRPV1 antagonist; 015-25071, FUJIFILM Wako Pure Chemical Corporation), GSK1016790A (TRPV4 agonist; G0798, manufactured by Sigma-Aldrich) were added and human fibroblasts were cultured for 3 weeks. Medium was changed every 3 days.
SFBAM is a serum-free brown adipocyte-inducing medium prepared by adding each ingredient in Table 1 to DMEM medium (Cat #: 11965092; manufactured by Gibco).
To quantify gene expression, total RNA was extracted from fibroblasts treated with each compound using the FastGene (registered trademark) RNA basic kit (manufactured by Nippon Genetics). As a control, fibroblasts were cultured in parallel using SFBAM and total RNA was extracted from compound-induced brown adipocytes and control cells. After reverse transcription by ReverTraAce (registered trademark) PCR RT Master Mix with gDNA Remover (manufactured by Toyobo), Real-time PCR analysis was performed using Power SYBR Green PCR Master Mix (manufactured by Thermo Fisher Scientific). Three reactions were performed per level under the following conditions. • After 10 minutes at 95° C., • The cycle time is 15 seconds at 95° C., followed by 60 seconds at 60° C., for 40 cycles.
All results were standardized by the amount of Tbp mRNA.
Immunocytochemistry was performed as previously reported (Dai P, et al. J Clin Biochem Nutr. 2015; 56(3): 166-70). First, cells were fixed with 4% paraformaldehyde (manufactured by Nacalai Tesque). After washed with phosphate-buffered saline (PBS) three times, the cells were incubated with PBS containing 0.1% Triton X-100 for 10 minutes. The cells were then blocked with PBS containing 3% skim milk for 1hour at room temperature. UCP-1 antibodies (ab10983, manufactured by Abcam, Cambridge, UK) were diluted 1/500 with the blocking solutions. The cells were incubated with the antibodies overnight at 4° C. […] All images were acquired using a fluorescence microscopy (BZ-X710-All-in-One Fluorescence Microscope, manufactured by Keyence). […]

[1] = TRPV1 antagonist added to culture with RoFB and capsaicin (25 μmol/L), FIGS. 8, 9
[2] = compound added to SFBAM with rosiglitazone, forskolin and BMP7 (RoFB), FIGS. 1-7, 10-12

Compound	browning tendency of ciBAs [1]	browning tendency of ciBAs [2]
CC(C)(C)c1ccc(/C=C/C(=O)Nc2ccc3c(c2)OCCO3)cc1 [AMG9810]	suppressed the browning tendency	–
CC(C)C[C@H](NC(=O)c1cc2ccccc2s1)C(=O)N1CCN(C(=O)[C@H](CO)NS(=O)(=O)c2ccc(Cl)cc2Cl)CC1 [GSK1016790A]	–	suppressed; also recorded: inhibits adipocyte browning
COc1cc(CNC(=O)CCCC/C=C/C(C)C)ccc1O [capsaicin]	–	enhanced; also recorded: promotes adipocyte browning
Oc1cc2c(cc1O)CN(C(=S)NCCc1ccc(Cl)cc1)CCC2 [capsazepine]	suppressed the browning tendency	–
CCCCCCCCC(=O)NCc1ccc(O)c(OC)c1 [nonivamide]	–	increased the browning tendency
